# Measurements taken from ChEMBL document CHEMBL3994562 (Medchemcomm, 2016).
# What was measured:
# MCF7 = test: Antiproliferative activity in human MCF7 cells after 72 hrs by MTT assay; type: functional, cell-based; conditions: MCF7, 72 h
# A549 = test: Antiproliferative activity in human A549 cells after 72 hrs by MTT assay; type: functional, cell-based; conditions: A549, 72 h
# [1] = Aqueous solubility of the compound in water after 48 hrs by UV spectrophotometer; type: physicochemical
# HCT-116 [2] = test: Antiproliferative activity in human HCT116 cells after 72 hrs by MTT assay; type: functional, cell-based; conditions: HCT-116, 72 h
# HepG2 [3] = test: Antiproliferative activity in human HepG2 cells after 72 hrs by MTT assay; type: functional, cell-based; conditions: HepG2, 72 h
# HCT-116 [4] = test: Potency index, ratio of 5-FU IC50 to compound IC50 for human HCT116 cells; type: functional
# Bel-7402 [5] = test: Antiproliferative activity in human Bel7402 cells after 72 hrs by MTT assay; type: functional, cell-based; conditions: Bel-7402, 72 h
# HepG2 [6] = test: Potency index, ratio of 5-FU IC50 to compound IC50 for human HepG2 cells; type: functional
# Bel-7402 [7] = test: Antiproliferative activity in 5-FU resistant human Bel7402 cells after 72 hrs by MTT assay; type: functional, cell-based; conditions: Bel-7402, 72 h
IC50 (MCF7) [µM],IC50 (A549) [µM],solubility at 48 h [1] [mg/mL],IC50 (HCT-116 [2]) [nM],IC50 (HepG2 [3]) [nM],IC50 (Bel-7402 [5]) [µM],IC50 (Bel-7402 [7]) [µM],SMILES,Ratio IC50 (HCT-116 [4]),Ratio IC50 (HepG2 [6])
5.36,3.86,13,1810,1340,,,CCN(CC)CCCCOC(=O)c1cc(O)c2c(c1)C(=O)c1cccc(O)c1C2=O.Cl,,
5.23,8.56,10.5,1880,2510,,,CCN1CCN(CCCCOC(=O)c2cc(O)c3c(c2)C(=O)c2cccc(O)c2C3=O)CC1.Cl.Cl,,
0.42,6.78,10,2390,2860,,,CCN1CCN(CCCCCOC(=O)c2cc(O)c3c(c2)C(=O)c2cccc(O)c2C3=O)CC1.Cl.Cl,,
9.85,10.8,12.3,8730,6030,,,Cl.O=C(OCCCCCN1CCOCC1)c1cc(O)c2c(c1)C(=O)c1cccc(O)c1C2=O,,
3.59,7.62,10.1,3970,1360,,,CCN1CCN(CCCOC(=O)c2cc(O)c3c(c2)C(=O)c2cccc(O)c2C3=O)CC1.Cl.Cl,,
28.9,26.4,10.7,2030,890,,,Cl.O=C(OCCCCN1CCCCC1)c1cc(O)c2c(c1)C(=O)c1cccc(O)c1C2=O,,
7.56,4.39,13.8,830,330,6.49,7.31,CCN(CC)CCCCCCOC(=O)c1cc(O)c2c(c1)C(=O)c1cccc(O)c1C2=O.Cl,5 - 18,5 - 18
27.3,24.9,12.1,4920,1810,,,Cl.O=C(OCCCN1CCOCC1)c1cc(O)c2c(c1)C(=O)c1cccc(O)c1C2=O,,
5.92,3.01,11,480,520,3.95,5.95,Cl.O=C(OCCCCCCN1CCCCC1)c1cc(O)c2c(c1)C(=O)c1cccc(O)c1C2=O,5 - 18,5 - 18
0.95,5.21,12.2,550,2510,,,Cl.Cl.O=C(OCCCCCN1CCN(CCO)CC1)c1cc(O)c2c(c1)C(=O)c1cccc(O)c1C2=O,,
6.63,2.9,14.8,2930,3320,,,CN1CCN(CCCCOC(=O)c2cc(O)c3c(c2)C(=O)c2cccc(O)c2C3=O)CC1.Cl.Cl,,
5.05,3.39,12.9,760,420,,,CN1CCN(CCCCCCOC(=O)c2cc(O)c3c(c2)C(=O)c2cccc(O)c2C3=O)CC1.Cl.Cl,,
27.5,25.4,12.8,3260,790,,,Cl.O=C(OCCCCCCN1CCOCC1)c1cc(O)c2c(c1)C(=O)c1cccc(O)c1C2=O,,
